From patent US20230027361A1, “METTL3 MODULATORS” (priority 2019, published 2023)
Read-outs that look alike come from different tables or passages of the source.

Assays:
METTL3/METTL14 = METTL3/METTL14 (Homo sapiens, UniProt Q86U44); assay: METTL3-14 Standard Enzyme Assay (METTL3 biochemical assay)
Procedure, shortened: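 METTL3/METTL14 at 2.5 nM, preincubated 5 min with compound in 20 mM HEPES pH 7.5, 50 mM KCl, 250 μM MgCl2, 1 mM DTT, at ambient temperature. Started with 100 nM 3′-biotinylated RNA and 100 nM ³H-SAM, quenched at 30 min with 15 μM cold SAM. Methylation read by scintillation on streptavidin flashplates.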

PRMT5-MEP50 = PRMT5-MEP50 (Homo sapiens, UniProt O14744); assay: PRMT5 Assay (PRMT5 biochemical assay)
Sequence of PRMT5-MEP50 (O14744 whole entry): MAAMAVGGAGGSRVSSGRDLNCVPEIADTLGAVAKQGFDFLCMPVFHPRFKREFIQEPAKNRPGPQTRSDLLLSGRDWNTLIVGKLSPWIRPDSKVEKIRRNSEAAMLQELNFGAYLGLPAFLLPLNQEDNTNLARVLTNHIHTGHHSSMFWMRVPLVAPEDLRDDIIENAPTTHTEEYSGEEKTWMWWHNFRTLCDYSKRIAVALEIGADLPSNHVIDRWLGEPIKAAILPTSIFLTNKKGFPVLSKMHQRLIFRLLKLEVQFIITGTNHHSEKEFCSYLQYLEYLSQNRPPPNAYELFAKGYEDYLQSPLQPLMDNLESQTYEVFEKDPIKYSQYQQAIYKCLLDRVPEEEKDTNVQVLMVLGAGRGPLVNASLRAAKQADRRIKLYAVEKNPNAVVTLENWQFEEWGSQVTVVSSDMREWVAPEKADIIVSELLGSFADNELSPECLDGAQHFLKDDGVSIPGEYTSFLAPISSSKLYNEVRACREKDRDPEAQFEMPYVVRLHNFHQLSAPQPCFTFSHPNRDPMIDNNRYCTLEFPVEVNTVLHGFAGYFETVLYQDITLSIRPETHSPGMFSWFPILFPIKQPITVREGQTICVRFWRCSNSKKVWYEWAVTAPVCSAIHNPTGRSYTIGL
Sequence of PRMT5-MEP50 (Q9BQA1 whole entry partner): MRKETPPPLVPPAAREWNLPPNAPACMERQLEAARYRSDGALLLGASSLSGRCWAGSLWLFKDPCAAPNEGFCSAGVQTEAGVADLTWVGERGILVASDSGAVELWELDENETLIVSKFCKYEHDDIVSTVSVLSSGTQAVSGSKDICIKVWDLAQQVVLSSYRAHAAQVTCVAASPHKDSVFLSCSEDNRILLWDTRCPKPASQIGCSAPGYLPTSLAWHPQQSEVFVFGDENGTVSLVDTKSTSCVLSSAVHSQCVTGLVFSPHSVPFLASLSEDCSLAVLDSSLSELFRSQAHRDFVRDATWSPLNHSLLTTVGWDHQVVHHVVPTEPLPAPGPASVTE
Procedure, shortened: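 PRMT5-MEP50 (2.5 nM final) preincubated 5 min with compound, then reacted 60 min at ambient temperature with 100 nM biotinylated N-acetyl histone H4 peptide and 250 nM 3H-SAM in 20 mM Tris-HCl pH 8.0, 1 mM DTT, 0.01% Tween. Quenched with 15 μM cold SAM; methylated peptide captured on streptavidin flashplates, scintillation counted.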

[1] = system: m6A in cellular mRNA of MOLM-13 cells; assay: m6A-mRNA LC-MS/MS Assay (m6A cellular assay); format: cell-based; conditions: Homo sapiens, MOLM-13, read-out: m^6A IC50
Procedure: Cells were harvested by centrifugation followed by mRNA extraction using DIRECT Dynabeads mRNA DIRECT kit (Life Technologies). mRNA was quantified on NanoDrop spectrophotometer (Thermo Fisher Scientific) and digested into single nucleosides using Nucleoside Digestion Mix (New England Biolabs). […] Quantification is performed in comparison with the standard curve, obtained from pure nucleoside standards (Selleck Chemicals) running with the same batch of samples. Percentage m^6A in cellular mRNA is calculated as 100*(m^6A/A).

MOLM-13 cells [2] = assay: MOLM-13 48 Hour Cell Proliferation Assay; format: cell-based; conditions: Homo sapiens
Procedure: MOLM-13 (DSMZ) cells were seeded at 1000 cells per well in a volume of 44 μL in a Falcon 384-well tissue culture treated clear bottom microplate in RPMI 1640 media containing 10% fetal bovine serum using a Multidrop Combi (ThermoFisher Scientific). Cells were incubated overnight at 37° C. in a humidified tissue culture incubator. The Mosquito® HTS Liquid Handler was used to make a compound/media intermediate plate by aliquoting 1 μL of compound from the initial compound dilution plate (concentrations ranging from 10.0 mM to 38.0 nM in 100% DMSO) into a V bottom 384-well screen matrix plate containing 49 μL of media containing the appropriate serum (50-fold dilution, 2% DMSO). The Apricot liquid handling system was used to transfer 6.2 μL compounds from the intermediate plate into the Falcon 384-well tissue culture plate containing 44 μL cells (10-point, 4-fold dilution spanning concentrations 25.0 μM to […], 0.25% DMSO final), and placed in a humidified tissue culture incubator at 37° C. After 48 hours, 25 μL of Cell Titer-Glo reagent (Promega) was added to each well using a Multidrop Combi. The plate was protected from light and placed on an IKA plate shaker for at 300 rpm for 10 minutes at room temperature. The plate was read on an EnVision plate reader (Perkin Elmer) using the Ultra Sensitive Luminescence protocol. Data analysis was performed by normalizing the raw luminescence units to an average of the positive control values for staurosporine (100% cell death) and the negative control values for DMSO (0% cell death). An IC50 was calculated using a 4-parameter logistic nonlinear regression model in GraphPad Prism.

MOLM-13 cells [3] = assay: MOLM-13 96 Hour Cell Proliferation Assay; format: cell-based; conditions: Homo sapiens
Procedure, shortened: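 MOLM-13 cells in RPMI 1640 with 10% FBS were plated overnight at 37 °C, then exposed to compound dilutions at 0.25% DMSO final for 96 h. Viability was read by CellTiter-Glo luminescence, normalised to staurosporine (100% death) and DMSO (0% death) controls, and IC50 was fitted by 4-parameter logistic regression.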

METTL1/WDR4 = METTL1/WDR4 (Homo sapiens, UniProt Q9UBP6); assay: METTL1 Assay (METTL1 biochemical assay)
Sequence of METTL1/WDR4 (Q9UBP6 whole entry, species assumed): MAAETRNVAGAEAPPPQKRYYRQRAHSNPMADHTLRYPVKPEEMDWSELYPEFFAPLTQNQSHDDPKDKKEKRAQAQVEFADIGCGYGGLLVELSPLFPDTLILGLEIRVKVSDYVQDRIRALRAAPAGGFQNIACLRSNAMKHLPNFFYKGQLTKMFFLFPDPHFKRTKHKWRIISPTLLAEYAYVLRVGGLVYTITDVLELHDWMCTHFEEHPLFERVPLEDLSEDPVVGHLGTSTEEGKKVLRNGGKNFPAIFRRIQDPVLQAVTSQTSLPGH
Sequence of METTL1/WDR4 (P57081 whole entry partner, species assumed): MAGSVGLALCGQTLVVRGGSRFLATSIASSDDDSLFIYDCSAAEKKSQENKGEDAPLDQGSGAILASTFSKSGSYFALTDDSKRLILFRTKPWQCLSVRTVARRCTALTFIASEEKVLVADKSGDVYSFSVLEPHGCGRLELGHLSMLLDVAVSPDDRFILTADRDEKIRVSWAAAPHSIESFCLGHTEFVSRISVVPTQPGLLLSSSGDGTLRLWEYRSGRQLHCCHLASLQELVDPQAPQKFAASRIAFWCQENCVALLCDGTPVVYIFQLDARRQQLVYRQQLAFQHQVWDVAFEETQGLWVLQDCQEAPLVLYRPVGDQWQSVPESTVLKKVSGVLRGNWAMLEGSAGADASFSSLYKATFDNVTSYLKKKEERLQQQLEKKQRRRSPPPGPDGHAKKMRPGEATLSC
Procedure, shortened: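 Radiometric methyltransfer by METTL1/WDR4 (6.25 nM f.c., 5 min preincubation) at ambient temperature in HEPES pH 7.5, KCl, MgCl2, DTT; started with 25 nM 3′-biotinylated RNA and 60 nM 3H-SAM, run 20 min, quenched with 15 μM cold SAM. Product captured on streptavidin flashplates (2 h, 25° C), counted by scintillation.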

[4] = METTL3 biochemical assay, read-out: METTL3 IC50
[5] = read-out: METTL1 IC50, METTL1 biochemical assay
[6] = PRMT5 biochemical assay, read-out: PRMT5 IC50

Sequence of METTL3/METTL14 (Q86U44 whole entry, species assumed): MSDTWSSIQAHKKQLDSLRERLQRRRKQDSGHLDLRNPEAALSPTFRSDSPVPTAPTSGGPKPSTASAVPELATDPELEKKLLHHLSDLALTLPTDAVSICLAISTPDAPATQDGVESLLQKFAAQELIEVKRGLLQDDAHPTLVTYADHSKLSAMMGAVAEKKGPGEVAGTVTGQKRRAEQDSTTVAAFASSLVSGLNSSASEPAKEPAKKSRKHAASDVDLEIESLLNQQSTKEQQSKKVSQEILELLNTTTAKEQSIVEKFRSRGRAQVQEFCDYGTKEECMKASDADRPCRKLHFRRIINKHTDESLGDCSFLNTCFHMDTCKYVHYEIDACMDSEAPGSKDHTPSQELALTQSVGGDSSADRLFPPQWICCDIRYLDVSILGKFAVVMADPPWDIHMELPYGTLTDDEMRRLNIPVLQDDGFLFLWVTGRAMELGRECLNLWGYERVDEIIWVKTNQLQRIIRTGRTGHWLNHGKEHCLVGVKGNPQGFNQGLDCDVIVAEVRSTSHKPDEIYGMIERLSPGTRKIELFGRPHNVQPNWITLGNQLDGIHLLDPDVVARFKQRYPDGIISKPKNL
Sequence of METTL3/METTL14 (Q9HCE5 whole entry partner, species assumed): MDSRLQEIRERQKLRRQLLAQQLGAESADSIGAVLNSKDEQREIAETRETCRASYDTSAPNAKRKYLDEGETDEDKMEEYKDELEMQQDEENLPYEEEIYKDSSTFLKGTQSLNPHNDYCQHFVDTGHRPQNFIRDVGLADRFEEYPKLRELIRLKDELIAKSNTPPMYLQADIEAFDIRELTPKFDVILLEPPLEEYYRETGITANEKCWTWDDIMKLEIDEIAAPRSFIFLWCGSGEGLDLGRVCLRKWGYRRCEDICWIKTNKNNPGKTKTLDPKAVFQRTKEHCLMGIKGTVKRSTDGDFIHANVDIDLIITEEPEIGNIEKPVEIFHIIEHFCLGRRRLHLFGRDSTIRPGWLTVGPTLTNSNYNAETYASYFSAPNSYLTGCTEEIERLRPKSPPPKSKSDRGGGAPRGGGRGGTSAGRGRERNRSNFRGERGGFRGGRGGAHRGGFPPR

Structure (SMILES): Cn1ccc(-c2cn([C@@H]3O[C@H](COc4ccc5ccc(NC6CCC6)nc5c4)[C@@H](O)[C@@H]3F)c3ncnc(N)c23)n1 [I-183]
- IC50 (METTL3/METTL14): < 0.01 µM
- IC50 (PRMT5-MEP50): > 1 µM
- IC50 [1]: < 1 µM
- IC50 (MOLM-13 cells [2]): < 1 µM
- IC50 (MOLM-13 cells [3]): < 1 µM

Structure (SMILES): Cc1coc(-c2cn([C@@H]3O[C@H](COc4ccc5ccc(N6CCC6)nc5c4)[C@@H](O)[C@@H]3F)c3ncnc(N)c23)n1 [I-220]
- IC50 (METTL3/METTL14): < 0.01 µM
- IC50 (PRMT5-MEP50): > 1 µM
- IC50 [1]: < 1 µM
- IC50 (MOLM-13 cells [2]): 1 to 10 µM
- IC50 (MOLM-13 cells [3]): < 1 µM

Structure (SMILES): CN(C)c1ccc2ccc(OC[C@H]3O[C@@H](n4ccc5c(N)ncnc54)[C@H](O)[C@@H]3O)cc2n1 [I-78]
- IC50 (METTL3/METTL14; [4]): 0.01 to 0.1 µM
- IC50 (METTL1/WDR4; [5]): > 1 µM
- IC50 (PRMT5-MEP50; [6]): 0.01 to 0.1 µM
- IC50 [1]: > 10 µM
- IC50 (MOLM-13 cells [2]): > 10 µM
- IC50 (MOLM-13 cells [3]; MOLM-13, 96 h): 1 to 10 µM

Structure (SMILES): Cn1ccc(-c2cn([C@H]3C[C@H](O)[C@@H](COc4ccc5ccc(N6CCC6)nc5c4)O3)c3ncnc(N)c23)n1 [I-164]
- IC50 (METTL3/METTL14): < 0.01 µM
- IC50 (PRMT5-MEP50): > 1 µM
- IC50 [1]: < 1 µM
- IC50 (MOLM-13 cells [2]): 1 to 10 µM
- IC50 (MOLM-13 cells [3]): < 1 µM

Structure (SMILES): CNc1ccc2ccc(OC[C@H]3O[C@@H](n4cc(C5CCCC5)c5c(N)ncnc54)C[C@@H]3O)cc2n1 [I-30, (2R,3S,5R)-5-(4-amino-5-cyclopentyl-7H-pyrrolo[2,3-d]pyrimidin-7-yl)-2-(((2-(methylamino)quinolin-7-yl)oxy)methyl)tetrahydrofuran-3-ol]
- IC50 (METTL3/METTL14; [4]): < 0.01 µM
- IC50 (METTL1/WDR4): > 1 µM
- IC50 (PRMT5-MEP50; [6]): > 1 µM
- IC50 [1]: 1 to 10 µM
- IC50 (MOLM-13 cells [2]): 1 to 10 µM
- IC50 (MOLM-13 cells [3]; MOLM-13, 96 h): < 1 µM

Structure (SMILES): CNc1ccc2ccc(OC[C@H]3O[C@@H](n4cc([C@@H]5CCCO5)c5c(N)ncnc54)[C@@H](F)[C@@H]3O)cc2n1 [I-152]
- IC50 (METTL3/METTL14; [4]): < 0.01 µM
- IC50 (PRMT5-MEP50; [6]): > 1 µM
- IC50 [1]: < 1 µM
- IC50 (MOLM-13 cells [2]): 1 to 10 µM
- IC50 (MOLM-13 cells [3]; MOLM-13, 96 h): < 1 µM

Structure (SMILES): Cn1ccc(-c2cn([C@H]3C[C@H](O)[C@@H](COc4ccc5ccc(NC6CC6)nc5c4)O3)c3ncnc(N)c23)n1 [I-179]
- IC50 (METTL3/METTL14): < 0.01 µM
- IC50 (PRMT5-MEP50): 0.1 to 1 µM
- IC50 [1]: 1 to 10 µM
- IC50 (MOLM-13 cells [2]): 1 to 10 µM
- IC50 (MOLM-13 cells [3]): < 1 µM

Structure (SMILES): Cn1ccc(-c2cn([C@@H]3O[C@H](COc4ccc5ccc(N6CC(O)C6)nc5c4)[C@@H](O)[C@@H]3F)c3ncnc(N)c23)n1 [I-171]
- IC50 (METTL3/METTL14): < 0.01 µM
- IC50 (PRMT5-MEP50): > 1 µM
- IC50 [1]: 1 to 10 µM
- IC50 (MOLM-13 cells [2]): 1 to 10 µM
- IC50 (MOLM-13 cells [3]): 1 to 10 µM

Structure (SMILES): Nc1ncnc2c1c([C@@H]1CCCO1)cn2[C@@H]1O[C@H](COc2ccc3ccc(N4CCC4)nc3c2)[C@@H](O)[C@@H]1F [I-158]
- IC50 (METTL3/METTL14; [4]): < 0.01 µM
- IC50 [1]: < 1 µM
- IC50 (MOLM-13 cells [2]): 1 to 10 µM
- IC50 (MOLM-13 cells [3]; MOLM-13, 96 h): < 1 µM

Structure (SMILES): Nc1ncnc2c1c(-n1cccn1)cn2[C@@H]1O[C@H](COc2ccc3ccc(N4CCC4)nc3c2)[C@@H](O)[C@@H]1F [I-222]
- IC50 (METTL3/METTL14): < 0.01 µM
- IC50 (PRMT5-MEP50): > 1 µM
- IC50 [1]: < 1 µM
- IC50 (MOLM-13 cells [2]): < 1 µM
- IC50 (MOLM-13 cells [3]): < 1 µM

Structure (SMILES): CNc1ccc2ccc(OC[C@H]3O[C@@H](n4cc([C@H]5CCCO5)c5c(N)ncnc54)[C@@H](F)[C@@H]3O)cc2n1 [I-151]
- IC50 (METTL3/METTL14; [4]): < 0.01 µM
- IC50 (PRMT5-MEP50; [6]): 0.1 to 1 µM
- IC50 [1]: 1 to 10 µM
- IC50 (MOLM-13 cells [2]): 1 to 10 µM
- IC50 (MOLM-13 cells [3]; MOLM-13, 96 h): < 1 µM

Structure (SMILES): CNc1ccc2ccc(OC[C@H]3O[C@@H](n4cc(-c5ncco5)c5c(N)ncnc54)[C@@H](F)[C@@H]3O)cc2n1 [I-150]
- IC50 (METTL3/METTL14; read-out: METTL3 IC50, METTL3 biochemical assay): < 0.01 µM
- IC50 (PRMT5-MEP50; read-out: PRMT5 IC50, PRMT5 biochemical assay): 0.01 to 0.1 µM
- IC50 [1]: < 1 µM
- IC50 (MOLM-13 cells [2]): < 1 µM
- IC50 (MOLM-13 cells [3]): < 1 µM

Structure (SMILES): Nc1ncnc2c1ccn2[C@@H]1O[C@H](COc2ccc3ccc(N4CCCC4)nc3c2)[C@@H](O)[C@H]1O [I-75]
- IC50 (METTL3/METTL14; [4]): 0.01 to 0.1 µM
- IC50 (METTL1/WDR4; [5]): > 1 µM
- IC50 (PRMT5-MEP50; [6]): 0.01 to 0.1 µM
- IC50 [1]: 1 to 10 µM
- IC50 (MOLM-13 cells [2]): > 10 µM

Structure (SMILES): CCc1cc(NC)c2ccc(OC[C@H]3O[C@@H](n4cc(-c5ccn(C)n5)c5c(N)ncnc54)[C@@H](F)[C@@H]3O)cc2n1 [I-232]
- IC50 (METTL3/METTL14): < 0.01 µM
- IC50 (METTL1/WDR4; METTL1 biochemical assay, read-out: METTL1 IC50): > 1 µM
- IC50 (PRMT5-MEP50): 0.1 to 1 µM
- IC50 [1]: > 10 µM
- IC50 (MOLM-13 cells [2]): > 10 µM

Structure (SMILES): Nc1ncnc2c1c(-n1cccn1)cn2[C@H]1C[C@H](O)[C@@H](COc2ccc3ccc(N4CCC4)nc3c2)O1 [I-170]
- IC50 (METTL3/METTL14): < 0.01 µM
- IC50 (PRMT5-MEP50): > 1 µM
- IC50 [1]: < 1 µM
- IC50 (MOLM-13 cells [2]): 1 to 10 µM
- IC50 (MOLM-13 cells [3]): 1 to 10 µM
